“And” between values parts separate entries of the source, which are not always exact repeats. Equal entries are not always repeated. After the bases stand the sugars from the 5' end (letter, count) and the backbone: PS all phosphorothioate, else s phosphorothioate and o phosphodiester by linkage. Methylation of C is not given here. l = locked nucleic acid (LNA); d = 2'-deoxy (DNA)

One data set addresses MYH7. Particulars: ASO, CC-2580, 5 µM.
With “CAGCTTGGCGATGATCT (sugars ldldllddddddlddll, PS)”, the target mRNA inhibition was 31% and 17%.

Consider “CAGCTTGGCGATGATCT (sugars l1 d2 l1 d11 l2, PS)”, for which the target mRNA inhibition was 27% and 2%.

Consider “CAGCTTGGCGATGATCT (sugars lldllddddddldddll, PS)”, for which the target mRNA inhibition is 45% and 31%.

Turning to “CAGCTTGGCGATGATCT (sugars lddlddddlddddddll, PS)”, the target mRNA inhibition is 34% and 17%.

Take “CTTGGCAATGATCTCATCC (sugars ldddddllddddldlddll, PS)”: the target mRNA inhibition is 67% and 52%.

Turning to “TCAGCTTGGCGATGATCT (sugars l2 d13 l3, PS)”, the target mRNA inhibition is 64% and 40%.

Consider “CTTGGCAATGATCTCATCC (sugars ldddddddldlldldldll, PS)”, for which the target mRNA inhibition is -7% and -17%.

As for “CTTGGCAATGATCTCATCC (sugars ldddldddddddlddldll, PS)”, the target mRNA inhibition is 22% and 3%.

In the case of “CAGCTTGGCGATGATCT (sugars lddllddlddddddlll, PS)”, the target mRNA inhibition is 15% and -9%.

For the sequence “CAGCTTGGCGATGATCT (sugars lddlddddddldlddll, PS)”, the target mRNA inhibition was 11% and 15%.

On to “CTTGGCAATGATCTCATCC (sugars l2 d10 l2 d2 l3, PS)”, for which the target mRNA inhibition is 74% and 49%.

For the sequence “CAGCTTGGCGATGATCT (sugars lddldldddddldldll, PS)”, the target mRNA inhibition was -1% and -24%.

As to “CAGCTTGGCGATGATCT (sugars lddlddddddlddllll, PS)”, the target mRNA inhibition is 29% and 23%.

Regarding “TCAGCTTGGCGATGATCT (sugars l2 d8 l1 d4 l3, PS)”, the target mRNA inhibition is 39% and 27%.

Turning to “CAGCTTGGCGATGATCT (sugars lddlddddddddldlll, PS)”, the target mRNA inhibition was 48% and 26%.

“CAGCTTGGCGATGATCT (sugars ldddddddddlldldll, PS)”: the target mRNA inhibition is 47% and 30%.

On to “TCAGCTTGGCGATGATCT (sugars lddldddddddlldldll, PS)”, for which the target mRNA inhibition is 14% and 8%.

On to “TCAGCTTGGCGATGATCT (sugars llddlddddddlddldll, PS)”, for which the target mRNA inhibition was -37% and -45%.

“CTTGGCAATGATCTCATCC (sugars lddddddlddlddldldll, PS)”: the target mRNA inhibition was 6% and -16%.

“CAGCTTGGCGATGATCT (sugars lddldldddddldddll, PS)”: the target mRNA inhibition is 22% and 7%.

For the sequence “CAGCTTGGCGATGATCT (sugars ldldldddddddlddll, PS)”, the target mRNA inhibition is 21% and 3%.

Turning to “CTTGGCAATGATCTCATCC (sugars lddldddddddldllddll, PS)”, the target mRNA inhibition is 56% and 39%.

For “CAGCTTGGCGATGATCT (sugars lldlddddddlldddll, PS)”, the target mRNA inhibition was 24% and 13%.

Take “TCAGCTTGGCGATGATCT (sugars l2 d5 l1 d6 l4, PS)”: the target mRNA inhibition was 72% and 49%.

Consider “CAGCTTGGCGATGATCT (sugars lddlddddlldddddll, PS)”, for which the target mRNA inhibition was 0% and -24%.

As to “CAGCTTGGCGATGATCT (sugars llddddddddlddldll, PS)”, the target mRNA inhibition is 37% and 33%.

For “TCAGCTTGGCGATGATCT (sugars l2 d10 l1 d2 l3, PS)”, the target mRNA inhibition is 67% and 55%.

With “CTTGGCAATGATCTCATCC (sugars lldlddddddddlddldll, PS)”, the target mRNA inhibition was 38% and 23%.

For “CAGCTTGGCGATGATCT (sugars lllddlddddddlddll, PS)”, the target mRNA inhibition was 25% and 0%.

On to “TCAGCTTGGCGATGATCT (sugars lddldlldlddddddlll, PS)”, for which the target mRNA inhibition was 36% and 34%.

Regarding “CTTGGCAATGATCTCATCC (sugars lldddddddlddlddldll, PS)”, the target mRNA inhibition was 59% and 36%.

On to “TCAGCTTGGCGATGATCT (sugars lddldddddddldlddll, PS)”, for which the target mRNA inhibition was 37% and 32%.

Take “CAGCTTGGCGATGATCT (sugars lddlldddddddlldll, PS)”: the target mRNA inhibition is 38% and 22%.

Turning to “CTTGGCAATGATCTCATCC (sugars lddddddlddldlddddll, PS)”, the target mRNA inhibition was 45% and 29%.

With “CTTGGCAATGATCTCATCC (sugars ldldlddddddlddlddll, PS)”, the target mRNA inhibition was -4% and -29%.

As to “CTTGGCAATGATCTCATCC (sugars l2 d1 l1 d11 l4, PS)”, the target mRNA inhibition is 81% and 60%.

Take “CAGCTTGGCGATGATCT (sugars lddlddddddlldldll, PS)”: the target mRNA inhibition is 18% and 5%.

“CTTGGCAATGATCTCATCC (sugars ldddddllddddlddldll, PS)”: the target mRNA inhibition was 24% and 0%.

As to “TCAGCTTGGCGATGATCT (sugars llddlddddddddldlll, PS)”, the target mRNA inhibition is 51% and 37%.

On to “CAGCTTGGCGATGATCT (sugars ldldldldlddddddll, PS)”, for which the target mRNA inhibition was -17% and -15%.

Take “CAGCTTGGCGATGATCT (sugars l3 d2 l1 d9 l2, PS)”: the target mRNA inhibition is 75% and 59%.

As for “CTTGGCAATGATCTCATCC (sugars lddddddddlddddlldll, PS)”, the target mRNA inhibition is 45% and 31%.

For “CAGCTTGGCGATGATCT (sugars lddlldddlldddddll, PS)”, the target mRNA inhibition was 36% and 19%.

As for “CAGCTTGGCGATGATCT (sugars lddlldddddlldldll, PS)”, the target mRNA inhibition was 22% and 14%.

“CAGCTTGGCGATGATCT (sugars lddldddddddlddlll, PS)”: the target mRNA inhibition is 3% and -1%.

Take “CTTGGCAATGATCTCATCC (sugars ldddddddlddldldldll, PS)”: the target mRNA inhibition is 37% and 12%.

With “CAGCTTGGCGATGATCT (sugars lldddddldddldldll, PS)”, the target mRNA inhibition was 20% and 15%.

Turning to “CTTGGCAATGATCTCATCC (sugars lddddddlddlldldldll, PS)”, the target mRNA inhibition is 18% and -7%.

As for “TCAGCTTGGCGATGATCT (sugars lddldlddddddldldll, PS)”, the target mRNA inhibition was 4% and -7%.

As to “TCAGCTTGGCGATGATCT (sugars l2 d8 l1 d3 l4, PS)”, the target mRNA inhibition is 48% and 46%.

Consider “CAGCTTGGCGATGATCT (sugars lldddddddllddldll, PS)”, for which the target mRNA inhibition was 17% and 3%.

In the case of “CAGCTTGGCGATGATCT (sugars ldlldddddddldddll, PS)”, the target mRNA inhibition is 38% and 20%.

Consider “TCAGCTTGGCGATGATCT (sugars ldlddlddddddldldll, PS)”, for which the target mRNA inhibition is -25% and -42%.

For “TCAGCTTGGCGATGATCT (sugars lddldllddlddddddll, PS)”, the target mRNA inhibition is 16% and -2%.

Consider “TCAGCTTGGCGATGATCT (sugars l2 d10 l1 d1 l4, PS)”, for which the target mRNA inhibition is 46% and 45%.

With “CTTGGCAATGATCTCATCC (sugars lldddddddlddddldlll, PS)”, the target mRNA inhibition was 67% and 43%.

As for “CTTGGCAATGATCTCATCC (sugars ldddddlddlddlddldll, PS)”, the target mRNA inhibition is -6% and -21%.

“CAGCTTGGCGATGATCT (sugars lddldddddddllddll, PS)”: the target mRNA inhibition is -2% and -12%.

For the sequence “CTTGGCAATGATCTCATCC (sugars ldddddllldddddlddll, PS)”, the target mRNA inhibition was 29% and 20%.

Turning to “CAGCTTGGCGATGATCT (sugars lddlddddddllddlll, PS)”, the target mRNA inhibition was 16% and 14%.

Regarding “CTTGGCAATGATCTCATCC (sugars lddddddlddddlddddll, PS)”, the target mRNA inhibition was 41% and 19%.

Turning to “CAGCTTGGCGATGATCT (sugars l2 d9 l1 d3 l2, PS)”, the target mRNA inhibition was 60% and 37%.

Turning to “TCAGCTTGGCGATGATCT (sugars ldldlldldddddddlll, PS)”, the target mRNA inhibition was 35% and 16%.

Turning to “CTTGGCAATGATCTCATCC (sugars llddlddddddldldldll, PS)”, the target mRNA inhibition is -25% and -43%.

With “CTTGGCAATGATCTCATCC (sugars l3 d13 l3, PS)”, the target mRNA inhibition is 71% and 46%.

A further data set concerns the target HTRA1. The note with it: ASO, U251, 5 µM.
With “CTTCTTCTATCTACGCAT (sugars l4 d12 l2, PS)”, the target mRNA inhibition turned out to be 86%.

Turning to TTGTATCGACTGCATT (sugars l3 d9 l4, PS), the target mRNA inhibition was 93%.

Regarding ATTGTATCGACTGCAT (sugars l3 d10 l3, PS), the target mRNA inhibition was 91%.

For GAAGTACTTTAATAGCT (sugars l4 d9 l4, PS), the target mRNA inhibition is 47%.

For “GTATCGACTGCATTAGTT (sugars l4 d12 l2, PS)”, the target mRNA inhibition is 82%.

As to “ACTCAGTTAAAGGAGGAG (sugars l2 d12 l4, PS)”, the target mRNA inhibition was 44%.

With TCGACTGCATTAGTTG (sugars l4 d8 l4, PS), the target mRNA inhibition is 84%.

On to “TTGTATCGACTGCATTAG (sugars l3 d12 l3, PS)”, for which the target mRNA inhibition amounted to 77%.

Take GTATCGACTGCATTAG (sugars l4 d8 l4, PS): the target mRNA inhibition was 91%.

As to TCTTCTATCTACGCAT (sugars l4 d9 l3, PS), the target mRNA inhibition was 85%.

In the case of ATCGACTGCATTAGTT (sugars l4 d8 l4, PS), the target mRNA inhibition is 56%.

Turning to “TTCTATCTACGCATTGT (sugars l3 d11 l3, PS)”, the target mRNA inhibition was found to be 83%.

As to TATCGACTGCATTAGT (sugars l4 d8 l4, PS), the target mRNA inhibition amounted to 81%.

As to “TCTTCTATCTACGCATT (sugars l3 d10 l4, PS)”, the target mRNA inhibition came out at 83%.

The target of another data set is ANGPTL2. The note with it: ASO, 5 µM.
Regarding “CTAGATTTCTTTCAGTTTG (sugars l2 d14 l3, PS)”, the target mRNA inhibition was 62.7% and 67.4%.

Consider “CAAGAGGGAGGGGAGGACA (sugars l1 d16 l2, PS)”, for which the target mRNA inhibition is 36.8%.

For “ACATGTATATTATGAAGGTA (sugars l4 d14 l2, PS)”, the target mRNA inhibition is 18.1%.

In the case of “ACTAAATGAACTTCCACA (sugars l4 d11 l3, PS)”, the target mRNA inhibition amounted to 44.6%.

With “AAGCTGTTGAAATGTATG (sugars l3 d11 l4, PS)”, the target mRNA inhibition came out at 41.3%.

In the case of “CTGGTTGATGATGCGGTTG (sugars l1 d16 l2, PS)”, the target mRNA inhibition stood at 52.7%.

With “GAAATGTTATCTAATACT (sugars l4 d10 l4, PS)”, the target mRNA inhibition came to 34.5%.

Still in this data set, the particulars now being: ASO, 25 µM.
On to “CTAGATTTCTTTCAGTTTG (sugars l2 d14 l3, PS)”, for which the target mRNA inhibition was 67.5% and 77.3%.

In the case of “CAAGAGGGAGGGGAGGACA (sugars l1 d16 l2, PS)”, the target mRNA inhibition stood at 42.9%.

With “ACATGTATATTATGAAGGTA (sugars l4 d14 l2, PS)”, the target mRNA inhibition is 8.64%.

For “ACTAAATGAACTTCCACA (sugars l4 d11 l3, PS)”, the target mRNA inhibition came out at 64.9%.

With “AAGCTGTTGAAATGTATG (sugars l3 d11 l4, PS)”, the target mRNA inhibition stood at 30.4%.

Turning to “CTGGTTGATGATGCGGTTG (sugars l1 d16 l2, PS)”, the target mRNA inhibition came to 60.5%.

“GAAATGTTATCTAATACT (sugars l4 d10 l4, PS)”: the target mRNA inhibition worked out at 49%.

These data come from the OligoGym collection.
